Peptide text beside a SMILES is read from it.
How the values were obtained:
CRF1R = target: T1, CRF1R (Homo sapiens, UniProt P34998); assay: CRF1R agonist activation (EC50 / Emax), called comparative CRF binding; assay type: cell-based; details: for Emax: read-out: CRF1R Emax; for EC50: read-out: CRF1R EC50
T1 sequence (P34998 24-415): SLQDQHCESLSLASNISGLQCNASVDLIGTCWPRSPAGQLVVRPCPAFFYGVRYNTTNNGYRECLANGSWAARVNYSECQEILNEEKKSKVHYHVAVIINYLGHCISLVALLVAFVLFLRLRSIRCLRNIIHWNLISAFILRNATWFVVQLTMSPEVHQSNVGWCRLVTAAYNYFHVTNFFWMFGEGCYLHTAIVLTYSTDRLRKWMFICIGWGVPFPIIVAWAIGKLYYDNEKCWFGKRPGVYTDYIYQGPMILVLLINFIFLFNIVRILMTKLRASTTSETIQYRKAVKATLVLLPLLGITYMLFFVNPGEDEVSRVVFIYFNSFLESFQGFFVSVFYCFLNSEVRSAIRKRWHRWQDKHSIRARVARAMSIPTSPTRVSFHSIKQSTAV
How it was run: (§1)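 Cells expressing human CRF1R or CRF2R are exposed to peptide or vehicle control, and receptor activation is read as cAMP induction, measured in cell lysates or via a CRE-linked reporter gene.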

CRF2R = target: T2, CRF2R (Homo sapiens, UniProt Q13324); assay: CRF2R agonist activation (EC50 / Emax), called comparative CRF binding; assay type: cell-based; details: for Emax: read-out: CRF2R Emax; for EC50: read-out: CRF2R EC50
T2 sequence (Q13324 1-411): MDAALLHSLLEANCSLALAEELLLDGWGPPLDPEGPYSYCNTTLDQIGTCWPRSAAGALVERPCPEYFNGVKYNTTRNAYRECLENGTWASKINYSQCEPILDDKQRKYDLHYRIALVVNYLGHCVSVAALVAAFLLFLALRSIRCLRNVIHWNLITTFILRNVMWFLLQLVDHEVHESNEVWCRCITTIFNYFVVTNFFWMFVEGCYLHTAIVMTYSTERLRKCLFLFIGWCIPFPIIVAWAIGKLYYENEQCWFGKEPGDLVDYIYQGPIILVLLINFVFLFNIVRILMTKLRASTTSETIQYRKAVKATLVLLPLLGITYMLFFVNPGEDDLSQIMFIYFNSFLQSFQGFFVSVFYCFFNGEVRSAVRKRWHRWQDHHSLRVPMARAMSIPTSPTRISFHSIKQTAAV
How it was run: as §1

Row | SMILES | Emax (CRF1R) [%] | Emax (CRF2R) [%] | EC50 (CRF1R) [nM] | EC50 (CRF2R) [nM]
1 | CC[C@H](C)[C@H](N)C(=O)N[C@H](C(=O)N[C@@H](CC(C)C)C(=O)N[C@@H](CO)C(=O)N[C@@H](CC(C)C)C(=O)N[C@@H](CC(=O)O)C(=O)N[C@H](C(=O)N1CCC[C@H]1C(=O)N[C@H](C(=O)NCC(=O)N[C@@H](CC(C)C)C(=O)N[C@@H](CC(C)C)C(=O)N[C@@H](CCC(N)=O)C(=O)N[C@H](C(=O)N[C@@H](CC(C)C)C(=O)N[C@@H](CC(C)C)C(=O)N[C@@H](CCC(=O)O)C(=O)N[C@@H](CCC(N)=O)C(=O)N[C@@H](CCC(=O)O)C(=O)N[C@@H](CCCCN)C(=O)N[C@@H](CCC(N)=O)C(=O)N[C@@H](CCC(=O)O)C(=O)N[C@@H](CCCCN)C(=O)N[C@@H](CCC(=O)O)C(=O)N[C@@H](CCCCN)C(=O)N[C@@H](CCC(N)=O)C(=O)N[C@@H](CCC(N)=O)C(=O)N[C@@H](C)C(=O)N[C@H](C(=O)N[C@H](C(=O)N[C@@H](CC(N)=O)C(=O)N[C@@H](C)C(=O)N[C@@H](CCCNC(=N)N)C(=O)N[C@H](C(=O)N[C@@H](CC(C)C)C(=O)N[C@@H](C)C(=O)N[C@@H](CCCNC(=N)N)C(=O)N[C@H](C(N)=O)C(C)C)[C@@H](C)CC)[C@@H](C)O)[C@@H](C)O)[C@@H](C)CC)[C@@H](C)CC)C(C)C)C(C)C [compound 167] (H-IVLSLDVPIGLLQILLEQEKQEKEKQQATTNARILARV-NH2; N-terminus assumed) | 15 | 100 |  | 
2 | CC[C@H](C)[C@H](N)C(=O)N[C@H](C(=O)N[C@@H](CC(C)C)C(=O)N[C@@H](CO)C(=O)N[C@@H](CC(C)C)C(=O)N[C@@H](CC(=O)O)C(=O)N[C@H](C(=O)N1CCC[C@H]1C(=O)N[C@H](C(=O)NCC(=O)N[C@@H](CC(C)C)C(=O)N[C@@H](CC(C)C)C(=O)N[C@@H](CCC(N)=O)C(=O)N[C@H](C(=O)N[C@@H](CC(C)C)C(=O)N[C@@H](CC(C)C)C(=O)N[C@@H](CCC(=O)O)C(=O)N[C@@H](CCC(N)=O)C(=O)N[C@@H](CCCNC(=N)N)C(=O)N[C@@H](CCCNC(=N)N)C(=O)N[C@@H](C)C(=O)N[C@@H](C)C(=O)N[C@@H](CCCNC(=N)N)C(=O)N[C@@H](CCC(=O)O)C(=O)N[C@@H](CCC(N)=O)C(=O)N[C@@H](C)C(=O)N[C@H](C(=O)N[C@H](C(=O)N[C@@H](CC(N)=O)C(=O)N[C@@H](C)C(=O)N[C@@H](CCCNC(=N)N)C(=O)N[C@H](C(=O)N[C@@H](CC(C)C)C(=O)N[C@@H](C)C(=O)N[C@@H](CCCNC(=N)N)C(=O)N[C@H](C(N)=O)C(C)C)[C@@H](C)CC)[C@@H](C)O)[C@@H](C)O)[C@@H](C)CC)[C@@H](C)CC)C(C)C)C(C)C [compound 133] (H-IVLSLDVPIGLLQILLEQRRAAREQATTNARILARV-NH2; N-terminus assumed) | 4 | 88 | > 100 | 12.2
3 | CC[C@H](C)[C@H](N)C(=O)N[C@H](C(=O)N[C@@H](CC(C)C)C(=O)N[C@@H](CO)C(=O)N[C@@H](CC(C)C)C(=O)N[C@@H](CC(=O)O)C(=O)N[C@H](C(=O)N1CCC[C@H]1C(=O)N[C@H](C(=O)NCC(=O)N[C@@H](CC(C)C)C(=O)N[C@@H](CC(C)C)C(=O)N[C@@H](CCC(N)=O)C(=O)N[C@H](C(=O)N[C@@H](CC(C)C)C(=O)N[C@@H](CC(C)C)C(=O)N[C@@H](CCC(=O)O)C(=O)N[C@@H](CCC(N)=O)C(=O)N[C@@H](C)C(=O)N[C@@H](CCCCN)C(=O)N[C@@H](CCC(N)=O)C(=O)N[C@@H](CCC(=O)O)C(=O)N[C@@H](C)C(=O)N[C@@H](C)C(=O)N[C@@H](CCCNC(=N)N)C(=O)N[C@@H](CCC(=O)O)C(=O)N[C@@H](CCC(N)=O)C(=O)N[C@@H](C)C(=O)N[C@H](C(=O)N[C@H](C(=O)N[C@@H](CC(N)=O)C(=O)N[C@@H](C)C(=O)N[C@@H](CCCNC(=N)N)C(=O)N[C@H](C(=O)N[C@@H](CC(C)C)C(=O)N[C@@H](C)C(=O)N[C@@H](CCCNC(=N)N)C(=O)N[C@H](C(N)=O)C(C)C)[C@@H](C)CC)[C@@H](C)O)[C@@H](C)O)[C@@H](C)CC)[C@@H](C)CC)C(C)C)C(C)C [compound 124] (H-IVLSLDVPIGLLQILLEQAKQEAAREQATTNARILARV-NH2; N-terminus assumed) | 6 | 94 | > 100 | 3.49
4 | CC[C@H](C)[C@H](NC(=O)[C@H](CCC(N)=O)NC(=O)[C@H](C)NC(=O)[C@H](CC(N)=O)NC(=O)[C@H](CCC(N)=O)NC(=O)[C@H](CCC(=O)O)NC(=O)[C@H](C)NC(=O)[C@H](CCCNC(=N)N)NC(=O)[C@H](CCC(=O)O)NC(=O)[C@H](CCCNC(=N)N)NC(=O)[C@H](CCC(N)=O)NC(=O)[C@H](CO)NC(=O)[C@H](CCC(N)=O)NC(=O)[C@@H](NC(=O)[C@H](CCCCN)NC(=O)[C@H](CCC(=O)O)NC(=O)[C@H](CC(C)C)NC(=O)[C@H](CCC(=O)O)NC(=O)[C@H](CC(C)C)NC(=O)[C@H](CC(C)C)NC(=O)[C@@H](NC(=O)[C@H](CCCNC(=N)N)NC(=O)[C@H](CC(C)C)NC(=O)[C@H](CC(C)C)NC(=O)[C@H](CC(C)C)NC(=O)[C@H](CC(C)C)NC(=O)[C@@H]1CCCN1C(=O)[C@H](CC(C)C)NC(=O)[C@H](CC(=O)O)NC(=O)[C@@H](NC(=O)[C@H](CO)NC(=O)[C@H](CC(C)C)NC(=O)[C@H](CO)NC(=O)[C@@H]1CCCN1C(=O)[C@H](CC(N)=O)NC(=O)[C@@H](N)CC(=O)O)[C@@H](C)CC)[C@@H](C)O)[C@@H](C)O)C(=O)N[C@@H](Cc1ccccc1)C(=O)N[C@@H](C)C(=O)N[C@@H](Cc1c[nH]cn1)C(=O)N[C@H](C(N)=O)C(C)C [compound 324] (H-DNPSLSIDLPLLLLRTLLELEKTQSQRERAEQNAQIFAHV-NH2; N-terminus assumed) | 46.6 | 100 | ≥ 1000 | 17.2
5 | CC[C@H](C)[C@H](N)C(=O)N[C@H](C(=O)N[C@@H](CC(C)C)C(=O)N[C@@H](CO)C(=O)N[C@@H](CC(C)C)C(=O)N[C@@H](CC(=O)O)C(=O)N[C@H](C(=O)N1CCC[C@H]1C(=O)N[C@H](C(=O)NCC(=O)N[C@@H](CC(C)C)C(=O)N[C@@H](CC(C)C)C(=O)N[C@@H](CCC(N)=O)C(=O)N[C@H](C(=O)N[C@@H](CC(C)C)C(=O)N[C@@H](CC(C)C)C(=O)N[C@@H](CCC(=O)O)C(=O)N[C@@H](CCC(N)=O)C(=O)N[C@H](C(=O)N[C@@H](CCCNC(=N)N)C(=O)N[C@@H](C)C(=O)N[C@@H](CCCNC(=N)N)C(=O)N[C@@H](C)C(=O)N[C@@H](C)C(=O)N[C@@H](CCCNC(=N)N)C(=O)N[C@@H](CCC(=O)O)C(=O)N[C@@H](CCC(N)=O)C(=O)N[C@@H](C)C(=O)N[C@H](C(=O)N[C@H](C(=O)N[C@@H](CC(N)=O)C(=O)N[C@@H](C)C(=O)N[C@@H](CCCNC(=N)N)C(=O)N[C@H](C(=O)N[C@@H](CC(C)C)C(=O)N[C@@H](C)C(=O)N[C@@H](CCCNC(=N)N)C(=O)N[C@H](C(N)=O)C(C)C)[C@@H](C)CC)[C@@H](C)O)[C@@H](C)O)[C@@H](C)O)[C@@H](C)CC)[C@@H](C)CC)C(C)C)C(C)C [compound 128] (H-IVLSLDVPIGLLQILLEQTRARAAREQATTNARILARV-NH2; N-terminus assumed) | 8 | 98 | > 100 | 2.85

Source: patent US6936585B2, “Corticotropin releasing factor 2 receptor agonists” (priority 2002, dated 2005)
